What is called EC50 is the midpoint of the concentration-response curve. One may read the AUC(0-inf) as the area under the concentration-time curve extrapolated to infinity. Lower therefore signals less exposure. Broadly, the AUC(0-t) is the area under the concentration-time curve up to a stated or last time point. A lower AUC(0-t) goes with low exposure. Usually Cmax stands for the maximum level reached in the sampled fluid or tissue. Broadly, the Tmax is the time at which the peak concentration occurs. What is called half-life is the time needed for the level to fall by half in the phase considered.

The text below walks through data of patent publication EP4696688A1, “BENZO-FUSED RING COMPOUND INHIBITOR, AND PREPARATION METHOD THEREFOR AND USE THEREOF” (Shanghai Hansoh Biomedical Co., Ltd., priority 2023, dated 2024).

For one data set, the target named is T1, human CYP11B2 (Homo sapiens, UniProt P19099).
T1 construct: The main elements of an expression plasmid include ORF of human CYP11B1 or human CYP11B2; expressed in transfected cells
T1 sequence (P19099 25-503): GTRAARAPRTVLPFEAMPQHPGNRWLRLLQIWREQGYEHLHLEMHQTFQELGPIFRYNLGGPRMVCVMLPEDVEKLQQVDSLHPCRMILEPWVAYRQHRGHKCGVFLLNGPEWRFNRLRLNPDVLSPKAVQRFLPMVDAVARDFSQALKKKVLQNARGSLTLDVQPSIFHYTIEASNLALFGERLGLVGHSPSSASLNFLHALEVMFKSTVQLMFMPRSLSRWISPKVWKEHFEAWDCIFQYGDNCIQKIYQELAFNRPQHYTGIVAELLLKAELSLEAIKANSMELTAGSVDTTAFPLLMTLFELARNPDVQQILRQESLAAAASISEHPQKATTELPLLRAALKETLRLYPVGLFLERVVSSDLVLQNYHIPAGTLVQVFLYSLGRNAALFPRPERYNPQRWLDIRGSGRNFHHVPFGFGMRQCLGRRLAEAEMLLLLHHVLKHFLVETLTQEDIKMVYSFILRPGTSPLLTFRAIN
Kind of data set: G-402 cell enzyme experiment, CYP11B2 (aldosterone product, HTRF). The class given is cell-based. The note with it: G-402 cells stably expressing human CYP11B2, 1 µM 11-deoxycorticosterone, 16 h. An outline of the steps:
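Stably transfected G-402 cells in DMEM/F12 with 2.5% charcoal-treated FBS, incubated 16 h with 1 µM 11-deoxycorticosterone (CYP11B2, aldosterone product) or 1 µM 11-deoxycortisol (CYP11B1, cortisol product). Supernatant product measured by HTRF; EC50 from 4-parameter MMF sigmoidal fit, minimum defined by empty-plasmid cells.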
Background: In TR-FRET formats the signal depends on donor and acceptor labels being close together.

The next data set concerns the target T2, human CYP11B1 (Homo sapiens, UniProt P15538).
T2 construct: The main elements of an expression plasmid include ORF of human CYP11B1 or human CYP11B2; expressed in transfected cells
T2 sequence (P15538 25-503): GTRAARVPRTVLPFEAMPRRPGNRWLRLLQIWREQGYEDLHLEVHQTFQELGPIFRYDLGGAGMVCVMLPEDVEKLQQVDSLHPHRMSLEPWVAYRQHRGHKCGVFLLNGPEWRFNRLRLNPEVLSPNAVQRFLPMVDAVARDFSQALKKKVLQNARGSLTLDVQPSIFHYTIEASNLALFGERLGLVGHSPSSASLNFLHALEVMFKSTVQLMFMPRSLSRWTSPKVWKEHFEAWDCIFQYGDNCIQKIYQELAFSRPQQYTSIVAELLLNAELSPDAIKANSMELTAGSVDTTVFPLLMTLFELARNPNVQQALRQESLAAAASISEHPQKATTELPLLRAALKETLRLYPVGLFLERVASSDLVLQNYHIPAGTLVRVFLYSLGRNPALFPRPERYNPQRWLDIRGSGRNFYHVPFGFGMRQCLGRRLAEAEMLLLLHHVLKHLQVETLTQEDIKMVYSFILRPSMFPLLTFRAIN
Nature of the data set: G-402 cell enzyme experiment, CYP11B1 (cortisol product, HTRF), selectivity versus CYP11B2. The note with it: human selective factor: ratio of CYP11B1 EC50 to CYP11B2 EC50; G-402 cells. The data set is classed as cell-based.

Data set [1] is described as follows: Pharmacokinetic determination in rats. The class given is in vivo. The conditions noted are these: rat, male SD rats, plasma, oral administration (PO) 5 mg/kg; for MRT inf: read-out: MRT0-∞. As to the method: SD rats were used as test animals to study the pharmacokinetic behavior of the compounds of the present invention in rats (plasma) after oral administration.
3 SD rats per group, male.
Formulation of drug for oral administration: 0.5% CMC-Na (1% Tween 80)
5 g of sodium carboxymethyl cellulose (CMC-Na, viscosity: 800-1200 Cps) was weighed and dissolved in 1000 mL of purified water, and 10 g of Tween 80 was added. These materials were uniformly mixed to form a clear solution.
The example compounds were weighed and dissolved in the solution and the mixture was shaken well and ultrasonicated for 15 min to obtain a colorless clear solution with a concentration of 0.5 mg/mL. Formulation of drug for intravenous administration: 5% DMSO + 10% Solutol HS15 + 85% PBS
After overnight fasting, 3 male SD rats per group were administered orally (PO) at a dose of 5 mg/kg with an administration volume of 10 mL/kg. […]
0.2 mL of blood was collected from the jugular vein of the experimental animals before administration and at 0.25 h, 0.5 h, 1.0 h, 2.0 h, 4.0 h, 6.0 h, 8.0 h, and 24.0 h after administration and placed in an EDTA-2K test tube, and the test tube was centrifuged at 8000 rpm for 6 min at 4°C to separate the plasma, which was stored at -80°C; and the animals were fed 4 h after administration.
3 Experimental results: The final determination results were obtained by using LCMS/MS method.

Compound `[2H]C([2H])([2H])n1cc(C(=O)N2CC3(C2)CN(c2cncc(-c4ccc5nc(OC)ccc5c4)c2)C3)cn1` [Example 78, (6-(5-(2-methoxyquinolin-6-yl)pyridin-3-yl)-2,6-diazaspiro[3.3]heptan-2-yl)(1-(methyl-d3)-1H-pyrazol-4-yl)methanone] registered a half-maximal effective concentration (EC50) at human CYP11B2 of 24 nM. In addition, the hsF on human CYP11B1 was over 8488x. Moreover, in data set [1], the AUC(0-inf) amounted to 21600 ng·h/mL, the exposure AUC(0-t) is 21600 ng·h/mL, the Cmax came out at 3210 ng/mL and the Tmax is 4 h. Besides, in data set [1], the half-life was 1.9 h and the MRT inf was found to be 4.7 h.

`COc1ccc2cc(-c3cncc(N4CC5(CN(C(=O)c6cnn(C)c6)C5)C4)n3)ccc2n1` [Example 79, (6-(6-(2-Methoxyquinolin-6-yl)pyrazin-2-yl)-2,6-diazaspiro[3.3]heptan-2-yl)(1-methyl-1H-pyrazol-4-yl)methanone] registered an EC50 at human CYP11B2 of 12 nM. The hsF at human CYP11B1 was found to be 3999x. Further, in data set [1], the AUC(0-inf) stood at 16700 ng·h/mL, the exposure AUC(0-t) came to 16700 ng·h/mL, the peak level (Cmax) was 3160 ng/mL and the time to peak (Tmax) was 4 h. In data set [1], the half-life was 2.8 h and the MRT inf is 4.5 h.

Regarding `Cn1cc(C(=O)N2CC(Oc3cncc(-c4ccc5c(c4)sc(=O)n5C)c3)C2)cn1` [Example 91, 3-methyl-6-(5-((1-(1-methyl-1H-pyrazole-4-carbonyl)azetidin-3-yl)oxy)pyridin-3-yl)benzo[d]thiazol-2(3H)-one], the concentration for a half-maximal effect (EC50) on human CYP11B2 stood at 12 nM. The hsF at human CYP11B1 amounted to 2278x. For the same compound, in data set [1], the total exposure AUC(0-inf) came to 18200 ng·h/mL, the AUC(0-t) came out at 18200 ng·h/mL, the concentration peaked (Cmax) at 2560 ng/mL and the Tmax amounted to 1 h. In data set [1], the half-life is 2.2 h and the MRT inf came to 4.2 h.

As for `COc1ccc2cc(-c3cncc(N4CC5(CN(C(=O)c6ccc(C)nc6)C5)C4)n3)ccc2n1` [Example 100, (6-(6-(2-methoxyquinolin-6-yl)pyrazin-2-yl)-2,6-diazaspiro[3.3]heptan-2-yl)(6-methylpyridin-3-yl)methanone], a half-maximal effect at human CYP11B2 (EC50) was put at 9 nM. Moreover, the hsF at human CYP11B1 was 1048x. Moreover, in data set [1], the AUC(0-inf) is 22500 ng·h/mL, the AUC(0-t) turned out to be 20100 ng·h/mL, the concentration peaked (Cmax) at 3950 ng/mL and the time of peak concentration (Tmax) is 2 h. In data set [1], the half-life is 2 h and the MRT inf is 4.1 h.

In the case of `Cn1cc(C(=O)N2CCC3(CC2)CN(c2cncc(-c4ccc5c(c4)sc(=O)n5C)c2)C3)cn1` [Example 103, 3-methyl-6-(5-(7-(1-methyl-1H-pyrazole-4-carbonyl)-2,7-diazaspiro[3.5]nonan-2-yl)pyridin-3-yl)benzo[d]thiazol-2(3H)-one], the EC50 on human CYP11B2 came out at 26 nM. For the same compound, the hsF at human CYP11B1 is on record as 1292x. In data set [1], the area under the curve AUC(0-inf) is 24700 ng·h/mL, the AUC(0-t) was found to be 24700 ng·h/mL, the highest level (Cmax) was 2700 ng/mL and the Tmax was determined as 4 h. In data set [1], the half-life was 1.8 h and the MRT inf amounted to 5.6 h.
